PubChem BioAssay AID2060601 (Molecular Pharmacology Branch, DTP, NCI, 2025)
Several values for one entry are separate records, joined by “and”; a condition that tells them apart may be missing. Equal entries are not always repeated.

Test system: 874868-142-R-J2-PDC complex spheroids, growth % test/control
Assay: Anticancer human tumor 874868-142-R-J2-PDC patient-derived head and neck squamous carcinoma cell line growth inhibition [CLK]
Conditions: for viability, T/C: stronger effect = lower value
Procedure, shortened: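 Multi-cell-type spheroids combined patient-derived tumor cells with HUVEC endothelial cells and human mesenchymal stem cells. Paired agents were dosed in half-log steps down from about clinical Cmax, or from 10 microM where Cmax was unknown.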

[1] = curve of first compound, second compound 0.0316 µM
[2] = curve of first compound, second compound 0.1 µM
[3] = curve of first compound, second compound 0.316 µM
[4] = curve of first compound, second compound 1 µM
[5] = curve of first compound, second compound 3.16 µM
[6] = curve of first compound, second compound 10 µM
[7] = second compound 0.0316 µM, first compound 0.0316 µM
[8] = second compound 0.0316 µM, first compound 0.1 µM
[9] = second compound 0.0316 µM, first compound 0.316 µM
[10] = second compound 0.0316 µM, first compound 1 µM
[11] = second compound 0.1 µM, first compound 0.0316 µM
[12] = second compound 0.1 µM, first compound 0.1 µM
[13] = second compound 0.1 µM, first compound 0.316 µM
[14] = second compound 0.1 µM, first compound 1 µM
[15] = second compound 0.316 µM, first compound 0.0316 µM
[16] = second compound 0.316 µM, first compound 0.1 µM
[17] = second compound 0.316 µM, first compound 0.316 µM
[18] = second compound 0.316 µM, first compound 1 µM
[19] = second compound 1 µM, first compound 0.0316 µM
[20] = second compound 1 µM, first compound 0.1 µM
[21] = second compound 1 µM, first compound 0.316 µM
[22] = second compound 1 µM, first compound 1 µM
[23] = second compound 3.16 µM, first compound 0.0316 µM
[24] = second compound 3.16 µM, first compound 0.1 µM
[25] = second compound 3.16 µM, first compound 0.316 µM
[26] = second compound 3.16 µM, first compound 1 µM
[27] = second compound 10 µM, first compound 0.0316 µM
[28] = second compound 10 µM, first compound 0.1 µM
[29] = second compound 10 µM, first compound 0.316 µM
[30] = second compound 10 µM, first compound 1 µM
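Note: spheroids exposed to the compounds for 7 days.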
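Throughout, for viability, T/C: 100% = DMSO vehicle control viability.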

`CCc1c2c(nc3ccc(O)cc13)-c1cc3c(c(=O)n1C2)COC(=O)[C@]3(O)CC` + CNC(=O)c1ccc(Nc2nc(OC3CCCC3)c3c(-c4ccc5nc(C)oc5c4)c[nH]c3n2)c(OC)c1 was tested. Which IC50 [1] did it give?
The IC50 was 11.8 nM.

What about the IC50 [2] of the same molecule?
The IC50 was 3.98 nM.

What about the IC50 [3] of the same molecule?
The IC50 was under 3.16 nM.

What about the IC50 [4] of the same molecule?
The IC50 was under 3.16 nM.

And the IC50 [5]?
The IC50 was under 3.16 nM.

What about the IC50 [6] of the same molecule?
Its IC50 is under 3.16 nM.

What about the viability, T/C (second compound 0.0316 µM, first compound 0.00316 µM) of the same molecule?
Its viability, T/C is 63.6%.

And the viability, T/C (second compound 0.0316 µM, first compound 0.01 µM)?
Its viability, T/C is 44%.

And the viability, T/C [7]?
The viability, T/C was 47.1%.

And the viability, T/C [8]?
Its viability, T/C is 28%.

And the viability, T/C [9]?
Its viability, T/C is 11.6%.

What about the viability, T/C [10] of the same molecule?
Its viability, T/C is 2.44%.

What about the viability, T/C (second compound 0.1 µM, first compound 0.00316 µM) of the same molecule?
Its viability, T/C is 50.4%.

And the viability, T/C (second compound 0.1 µM, first compound 0.01 µM)?
The viability, T/C was 47.8%.

What about the viability, T/C [11] of the same molecule?
The viability, T/C was 35.7%.

And the viability, T/C [12]?
The viability, T/C was 28.2%.

What about the viability, T/C [13] of the same molecule?
Its viability, T/C is 16.6%.

And the viability, T/C [14]?
Its viability, T/C is 2.97%.

What about the viability, T/C (second compound 0.316 µM, first compound 0.00316 µM) of the same molecule?
The viability, T/C was 42.9%.

What about the viability, T/C (second compound 0.316 µM, first compound 0.01 µM) of the same molecule?
Its viability, T/C is 37.9%.

What about the viability, T/C [15] of the same molecule?
The viability, T/C was 34.4%.

What about the viability, T/C [16] of the same molecule?
Its viability, T/C is 19.6%.

And the viability, T/C [17]?
The viability, T/C was 11.3%.

What about the viability, T/C [18] of the same molecule?
The viability, T/C was 4.87%.

And the viability, T/C (second compound 1 µM, first compound 0.00316 µM)?
The viability, T/C was 31%.

What about the viability, T/C (second compound 1 µM, first compound 0.01 µM) of the same molecule?
Its viability, T/C is 26.8%.

And the viability, T/C [19]?
Its viability, T/C is 15.1%.

And the viability, T/C [20]?
The viability, T/C was 11.6%.

And the viability, T/C [21]?
Its viability, T/C is 7.96%.

What about the viability, T/C [22] of the same molecule?
Its viability, T/C is 1.98%.

And the viability, T/C (second compound 3.16 µM, first compound 0.00316 µM)?
Its viability, T/C is 24.7%.

What about the viability, T/C (second compound 3.16 µM, first compound 0.01 µM) of the same molecule?
The viability, T/C was 20.7%.

And the viability, T/C [23]?
Its viability, T/C is 15.3%.

What about the viability, T/C [24] of the same molecule?
The viability, T/C was 12.4%.

What about the viability, T/C [25] of the same molecule?
The viability, T/C was 12.8%.

And the viability, T/C [26]?
Its viability, T/C is 4.03%.

What about the viability, T/C (second compound 10 µM, first compound 0.00316 µM) of the same molecule?
The viability, T/C was 28.8%.

And the viability, T/C (second compound 10 µM, first compound 0.01 µM)?
The viability, T/C was 21.6%.

What about the viability, T/C [27] of the same molecule?
Its viability, T/C is 14%.

And the viability, T/C [28]?
The viability, T/C was 11.2%.

What about the viability, T/C [29] of the same molecule?
The viability, T/C was 9.57%.

And the viability, T/C [30]?
The viability, T/C was 9.34%.

For `C#Cc1c(F)ccc2cc(O)cc(-c3ncc4c(N5CC6CCC(C5)N6)nc(OCC56CCCN5CC(F)C6)nc4c3F)c12` (stereo not drawn) + CNC(=O)c1ccc(Nc2nc(OC3CCCC3)c3c(-c4ccc5nc(C)oc5c4)c[nH]c3n2)c(OC)c1, which IC50 [1] is on record?
Its IC50 is 6560 nM.

And the IC50 [2]?
The IC50 was 862 nM.

What about the IC50 [3] of the same molecule?
Its IC50 is 89.5 nM.

And the IC50 [4]?
The IC50 was under 31.6 nM.

And the IC50 [5]?
The IC50 was under 31.6 nM.

What about the IC50 [6] of the same molecule?
Its IC50 is under 31.6 nM.

And the viability, T/C [7]?
Its viability, T/C is 92.7%.

And the viability, T/C [8]?
Its viability, T/C is 75.7%.

What about the viability, T/C [9] of the same molecule?
The viability, T/C was 80.7%.

And the viability, T/C [10]?
The viability, T/C was 65%.

What about the viability, T/C (second compound 0.0316 µM, first compound 3.16 µM) of the same molecule?
The viability, T/C was 54.3%.

And the viability, T/C (second compound 0.0316 µM, first compound 10 µM)?
The viability, T/C was 47.1%.

What about the viability, T/C [11] of the same molecule?
Its viability, T/C is 72.5%.

And the viability, T/C [12]?
Its viability, T/C is 84.5%.

And the viability, T/C [13]?
Its viability, T/C is 66.5%.

What about the viability, T/C [14] of the same molecule?
The viability, T/C was 48.4%.

And the viability, T/C (second compound 0.1 µM, first compound 3.16 µM)?
Its viability, T/C is 51%.

And the viability, T/C (second compound 0.1 µM, first compound 10 µM)?
The viability, T/C was 43.3%.

And the viability, T/C [15]?
The viability, T/C was 58.1%.

What about the viability, T/C [16] of the same molecule?
Its viability, T/C is 48.5%.

What about the viability, T/C [17] of the same molecule?
Its viability, T/C is 44.2%.

And the viability, T/C [18]?
The viability, T/C was 43%.

And the viability, T/C (second compound 0.316 µM, first compound 3.16 µM)?
Its viability, T/C is 39.8%.

And the viability, T/C (second compound 0.316 µM, first compound 10 µM)?
Its viability, T/C is 39%.

What about the viability, T/C [19] of the same molecule?
The viability, T/C was 41.6%.

What about the viability, T/C [20] of the same molecule?
The viability, T/C was 39.4%.

What about the viability, T/C [21] of the same molecule?
The viability, T/C was 36.5%.

And the viability, T/C [22]?
Its viability, T/C is 35.2%.

And the viability, T/C (second compound 1 µM, first compound 3.16 µM)?
Its viability, T/C is 35.1%.

And the viability, T/C (second compound 1 µM, first compound 10 µM)?
Its viability, T/C is 31.6%.

What about the viability, T/C [23] of the same molecule?
The viability, T/C was 37.1%.

What about the viability, T/C [24] of the same molecule?
Its viability, T/C is 37.8%.

What about the viability, T/C [25] of the same molecule?
Its viability, T/C is 31.1%.

What about the viability, T/C [26] of the same molecule?
Its viability, T/C is 30%.

And the viability, T/C (second compound 3.16 µM, first compound 3.16 µM)?
Its viability, T/C is 30.5%.

And the viability, T/C (second compound 3.16 µM, first compound 10 µM)?
The viability, T/C was 33.8%.

What about the viability, T/C [27] of the same molecule?
Its viability, T/C is 35.8%.

And the viability, T/C [28]?
Its viability, T/C is 37.4%.

What about the viability, T/C [29] of the same molecule?
Its viability, T/C is 33.9%.

What about the viability, T/C [30] of the same molecule?
Its viability, T/C is 32.6%.

What about the viability, T/C (second compound 10 µM, first compound 3.16 µM) of the same molecule?
Its viability, T/C is 32.4%.

And the viability, T/C (second compound 10 µM, first compound 10 µM)?
Its viability, T/C is 26.8%.

What does the source list for `CCc1c2c(nc3ccc(O)cc13)-c1cc3c(c(=O)n1C2)COC(=O)[C@]3(O)CC`?
viability, T/C (compound 0.00316 µM): 37.6% and 46.9%; viability, T/C (compound 0.01 µM): 41% and 49.8%; viability, T/C (compound 0.0316 µM): 32.2% and 42.1%; viability, T/C (compound 0.1 µM): 32.6% and 36%; viability, T/C (compound 0.316 µM): 11.1% and 16.2%; viability, T/C (compound 1 µM): 3.13% and 2.22%; IC50 (curve of compound): < 3.16 nM

Which results are given for `CCCS(=O)(=O)Nc1ccc(F)c(C(=O)c2c[nH]c3ncc(-c4ccc(Cl)cc4)cc23)c1F`?
viability, T/C (compound 0.0316 µM): 115% and 95.8%; viability, T/C (compound 0.1 µM): 113% and 129%; viability, T/C (compound 0.316 µM): 116% and 105%; viability, T/C (compound 1 µM): 111% and 136%; viability, T/C (compound 3.16 µM): 120% and 141%; viability, T/C (compound 10 µM): 85.7% and 73.7%; IC50 (curve of compound): > 10000 nM
